# Experimental data reported in patent publication US20250345277A1, “Ionizable Liposome, Preparation Thereof, and Application Thereof in Gene Delivery” (MAXIRNA (ZHEJIANG) TECHNOLOGY CO. LTD., priority 2021, published 2025).
# Tests used:
# [1] = Size and polydispersity index PDI of lipid nanoparticles (Malvern Zetasizer Nano ZS); format: physicochemical; settings: LNP ionizable lipid/DOPE/cholesterol/DSPE-PEG2000 35/16/46.5/2.5 mol% encapsulating EGFP mRNA; for Particle Size: in nm (unit assumed)
# Protocol: (§1) The ionizable lipid compound of Example 1 was dissolved in ethanol with DOPE, cholesterol and DSPE-PEG2000 (all purchased from AVT (Shanghai) Pharmaceutical Technology Co., Ltd.) at a molar ratio of 35:16:46.5:2.5 to prepare ethanol lipid solution, and enhanced green fluorescent protein (EGFP) mRNAs (Shanghai Maximna Pharmaceutical Engineering Co., Ltd., JN-4201) were diluted in 20 mM citrate buffer (pH=6.1) to obtain mRNA aqueous solution. Ethanol lipid solution and mRNA aqueous solution were mixed at a volume ratio of 1:3 by using a microfluidic device (Micro&Nano (Shanghai) Instrument Technology Co., Ltd., model: INano™ML), LNPs were prepared with a weight ratio of approximately 10:1 between total lipids and mRNAs. The medium was replaced by ultrafiltration, ethanol was removed and volumed with DPBS. Finally, the lipid nanoparticles were filtered through a 0.2 μm sterile filter to obtain a LNP formulation encapsulating eGFP mRNA using ionizable lipid/DOPE/cholesterol/DSPE-PEG2000 (35/16/46.5/2.5 mol %), the concentration of mRNAs being 0.002 mg/mL-0.5 mg/mL.
# Using Malvern Zetasizer Nano ZS (Malvern UK), the size and polydispersity index PDI of lipid nanoparticles were measured at […].
# DC2.4 cells = experiment: In vitro transfection of DC2.4 cells with EGFP mRNA LNP preparation (flow cytometry); format: cell-based, mouse; settings: DC2.4 cells; for Cell Viability / Positive Rate (EGFP): EGFP mRNA LNP, 200 ng mRNA per well, flow cytometry; for Fluorescence Intensity: EGFP mRNA expression level, normalized based on the sample with the highest fluorescence intensity
# Source text: The description is based on peripheral blood mononuclear cells PBMC (Shanghai Oribiotech Co., Ltd.), human peripheral blood leukemia T cell Jurkat (ATCC), tumor infiltrating lymphocyte TIL (isolated from resected tumor tissue of a liver cancer patient, the preparation method refers to CN114763530A), mouse bone marrow-derived dendritic cells DC2.4 (Cell Bank of the Chinese Academy of Sciences), and Chinese hamster ovary cells CHO (ATCC) were used as verified cell lines for liposome transfection. PBMC, Jurkat, and TIL cells grew in suspension, while DC2.4 and CHO cells grew by adherent culture. All the operation steps of cell culture must strictly abide by the prescribed procedures, and sterile reagents is used to perform aseptic operations under a sterile workbench. The main steps are as follows: • 1) Cell recovery: the preserved cell cryopreservation solution was taken out of the −80° C. refrigerator, and was immediately put in a 37° C. water bath for rapid and continuous shaking, and was completely melted within one minute. Fresh medium was added to the 15 mL centrifuge tube in advance, and the cell solution was added to the centrifuge tube in a biological safety cabinet. A centrifuge tube of the same quality was taken and placed symmetrically in a centrifuge, centrifuged at a low speed at 1200 rpm for 5 min. After centrifugation, the supernatant was removed, and an appropriate amount of medium was slowly added along the tube wall. After the cells were evenly dispersed by blowing gently, the cell suspension was pipette and added to the culture bottle prepared in advance. The state and distribution of the cells in the early stage of recovery were observed under a microscope. The culture bottle was placed in a 5% CO2 incubator and incubated at 37° C., and the recovery time was recorded. • 2) Cell subculture: Under the microscope, if the cell density in the field of view reaches 80%-90%, the cells can be subcultured. Adherent cells need to be digested with trypsin. In order to avoid the residual serum in the culture medium to reduce the activity of trypsin, DPBS solution was added to wash once after removing the original culture medium. After remove the DPBS solution, trypsin was added to degrade the protein at the junction between cells. This separates the cells for further culture. The cells were gently shaked evenly and put into the incubator for digestion for 2 min. Immediately after the digestion was completed, an appropriate amount of medium was added to the original petri dish to terminate the digestion. Finally, the cells were carefully blowed off using a pipette and blowed until they are evenly dispersed, and then inoculated and subcultured at a certain ratio according to the experimental requirements. […]
# • 1) DC2.4 cells recovery: the frozen DC2.4 cells were taken out from the −80° C. refrigerator, put in a 37° C. water bath to quickly thaw the cells, added to the preheated medium after thawing, centrifuged at 1200 rpm for 5 min, the supernatant was discarded, and an appropriate amount of DMEM medium with 10% FBS was added to resuspend the recovered DC2.4, and placed in a 5% CO2 incubator at 37° C. for activation and culture. • 2) According to the experimental arrangement, DC2.4 cells were plated on a 24-well plate one day in advance for cell transfection. Through cell counting, the number of cells and cell viability were recorded, the cell suspension were taken at 2×10^5 cells per well, then a certain volume of DMEM medium containing 10% FBS was added and mixed evenly, 1 mL of mixture was added to each well for subsequent transfection experiment. • 3) After 24 hours, the medium was gently removed 30 minutes in advance by a pipette, 1 mL DPBS was added to each well for washing and then removed, then 300 μL serum-free Opti-MEM medium was added to each well for subsequent transfection experiments.
# Subsequent steps are the same as the transfection protocol for PBMC cells. […]
# [2] = Entrapment efficiency of LNP preparation encapsulating EGFP mRNA; format: physicochemical; settings: LNP ionizable lipid/DOPE/cholesterol/DSPE-PEG2000 35/16/46.5/2.5 mol% encapsulating EGFP mRNA
# Protocol: as §1, with “mg/mL. […]” for “mg/mL.”
smiles,measurement,setting,value
CCCCCCCCCCCCCCCCC(O)CN(CCOCCOCCOCCN(CCOCCOCCOCCN(CC(O)CCCCCCCCCCCCCCCC)CC(O)CCCCCCCCCCCCCCCC)CCN1CCN(CCO)CC1)CC(O)CCCCCCCCCCCCCCCC [L-C18],PDI,[1],0.182
same,Particle Size,[1],124.0
same,Cell Viability,DC2.4 cells,98.6%
same,Positive Rate (EGFP),DC2.4 cells,59.7%
same,Fluorescence Intensity,DC2.4 cells,0.02
same,Entrapment Efficiency,[2],91.70%
CCCCCCCCCCC(O)CN(CCN(CCN1CCN(CCO)CC1)CCN(CC(O)CCCCCCCCCC)CC(O)CCCCCCCCCC)CC(O)CCCCCCCCCC (stereo not drawn) [I-C12],PDI,[1],0.114
same,Particle Size,[1],83.8
same,Cell Viability,DC2.4 cells,98.5%
same,Positive Rate (EGFP),DC2.4 cells,63.9%
same,Fluorescence Intensity,DC2.4 cells,0.05
same,Entrapment Efficiency,[2],88.38%
CCCCCCCCCCC(O)CN(CCOCCN(CCOCCN(CC(O)CCCCCCCCCC)CC(O)CCCCCCCCCC)CCN1CCN(CCO)CC1)CC(O)CCCCCCCCCC (stereo not drawn) [J-C12],PDI,[1],0.105
same,Particle Size,[1],99.7
same,Cell Viability,DC2.4 cells,81.8%
same,Positive Rate (EGFP),DC2.4 cells,62.6%
same,Fluorescence Intensity,DC2.4 cells,0.04
same,Entrapment Efficiency,[2],92.88%
CCCCCCCCCCCCCCCCC(O)CN(CCOCCOCCN(CCOCCOCCN(CC(O)CCCCCCCCCCCCCCCC)CC(O)CCCCCCCCCCCCCCCC)CCN1CCN(C)CC1)CC(O)CCCCCCCCCCCCCCCC (stereo not drawn) [G-C18],PDI,[1],0.195
same,Particle Size,[1],99.8
same,Cell Viability,DC2.4 cells,95.2%
same,Positive Rate (EGFP),DC2.4 cells,63.9%
same,Fluorescence Intensity,DC2.4 cells,0.63
same,Entrapment Efficiency,[2],80.79%
CCCCCCCCCCCCCCC(O)CN(CCOCCOCCN(CCOCCOCCN(CC(O)CCCCCCCCCCCCCC)CC(O)CCCCCCCCCCCCCC)CCN1CCN(C)CC1)CC(O)CCCCCCCCCCCCCC (stereo not drawn) [G-C16],PDI,[1],0.102
same,Particle Size,[1],78.2
same,Cell Viability,DC2.4 cells,94.5%
same,Positive Rate (EGFP),DC2.4 cells,79.6%
same,Fluorescence Intensity,DC2.4 cells,0.54
same,Entrapment Efficiency,[2],85.40%
CCCCCCCCCCC(O)CN(CCOCCOCCN(CCOCCOCCN(CC(O)CCCCCCCCCC)CC(O)CCCCCCCCCC)CCN1CCN(C)CC1)CC(O)CCCCCCCCCC (stereo not drawn) [G-C12],PDI,[1],0.172
same,Particle Size,[1],89.3
same,Cell Viability,DC2.4 cells,92.9%
same,Positive Rate (EGFP),DC2.4 cells,83.1%
same,Fluorescence Intensity,DC2.4 cells,0.29
same,Entrapment Efficiency,[2],89.95%
CCCCCCCCCCCCCCC(O)CN(CCOCCOCCN(CCOCCOCCN(CC(O)CCCCCCCCCCCCCC)CC(O)CCCCCCCCCCCCCC)CCN1CCN(CCO)CC1)CC(O)CCCCCCCCCCCCCC (stereo not drawn) [K-C16],PDI,[1],0.185
same,Particle Size,[1],76.0
same,Cell Viability,DC2.4 cells,93.4%
same,Positive Rate (EGFP),DC2.4 cells,60.2%
same,Fluorescence Intensity,DC2.4 cells,0.04
same,Entrapment Efficiency,[2],95.74%
CCCCCCCCCCCCCCC(O)CN(CCOCCOCCOCCN(CCOCCOCCOCCN(CC(O)CCCCCCCCCCCCCC)CC(O)CCCCCCCCCCCCCC)CCN1CCN(C)CC1)CC(O)CCCCCCCCCCCCCC (stereo not drawn) [H-C16],PDI,[1],0.162
same,Particle Size,[1],95.5
same,Cell Viability,DC2.4 cells,>99.0%
same,Positive Rate (EGFP),DC2.4 cells,59.0%
same,Fluorescence Intensity,DC2.4 cells,0.77
same,Entrapment Efficiency,[2],86.56%
CCCCCCCCCCCCCCCCC(O)CN(CCOCCOCCN(CCOCCOCCN(CC(O)CCCCCCCCCCCCCCCC)CC(O)CCCCCCCCCCCCCCCC)CCN1CCN(CCO)CC1)CC(O)CCCCCCCCCCCCCCCC (stereo not drawn) [K-C18],PDI,[1],0.134
same,Particle Size,[1],124.2
same,Cell Viability,DC2.4 cells,>99.0%
same,Positive Rate (EGFP),DC2.4 cells,74.7%
same,Fluorescence Intensity,DC2.4 cells,0.05
same,Entrapment Efficiency,[2],92.77%
CCCCCCCCCCCCCCCCC(O)CN(CCN(CCN1CCN(CCO)CC1)CCN(CC(O)CCCCCCCCCCCCCCCC)CC(O)CCCCCCCCCCCCCCCC)CC(O)CCCCCCCCCCCCCCCC (stereo not drawn) [I-C18],PDI,[1],0.109
same,Particle Size,[1],72.3
same,Cell Viability,DC2.4 cells,86.0%
same,Positive Rate (EGFP),DC2.4 cells,66.4%
same,Fluorescence Intensity,DC2.4 cells,0.04
same,Entrapment Efficiency,[2],83.06%
CCCCCCCCCCCCCCCCC(O)CN(CCOCCN(CCOCCN(CC(O)CCCCCCCCCCCCCCCC)CC(O)CCCCCCCCCCCCCCCC)CCN1CCN(CCO)CC1)CC(O)CCCCCCCCCCCCCCCC (stereo not drawn) [J-C18],PDI,[1],0.163
same,Particle Size,[1],93.7
same,Cell Viability,DC2.4 cells,83.6%
same,Positive Rate (EGFP),DC2.4 cells,60.9%
same,Fluorescence Intensity,DC2.4 cells,0.04
same,Entrapment Efficiency,[2],88.56%
CCCCCCCCCCC(O)CN(CCN(CCN1CCN(C)CC1)CCN(CC(O)CCCCCCCCCC)CC(O)CCCCCCCCCC)CC(O)CCCCCCCCCC (stereo not drawn) [E-C12],PDI,[1],0.133
same,Particle Size,[1],96.9
same,Cell Viability,DC2.4 cells,84.8%
same,Positive Rate (EGFP),DC2.4 cells,56.4%
same,Fluorescence Intensity,DC2.4 cells,0.69
same,Entrapment Efficiency,[2],95.02%
CCCCCCCCCCCCC(O)CN(CCN(CCN1CCN(CCO)CC1)CCN(CC(O)CCCCCCCCCCCC)CC(O)CCCCCCCCCCCC)CC(O)CCCCCCCCCCCC (stereo not drawn) [I-C14],PDI,[1],0.180
same,Particle Size,[1],120.3
same,Cell Viability,DC2.4 cells,97.0%
same,Positive Rate (EGFP),DC2.4 cells,62.7%
same,Fluorescence Intensity,DC2.4 cells,0.05
same,Entrapment Efficiency,[2],87.59%
CCCCCCCCCCCCCCC(O)CN(CCN(CCN1CCN(CCO)CC1)CCN(CC(O)CCCCCCCCCCCCCC)CC(O)CCCCCCCCCCCCCC)CC(O)CCCCCCCCCCCCCC (stereo not drawn) [I-C16],PDI,[1],0.147
same,Particle Size,[1],96.3
same,Cell Viability,DC2.4 cells,81.3%
same,Positive Rate (EGFP),DC2.4 cells,68.7%
same,Fluorescence Intensity,DC2.4 cells,0.06
same,Entrapment Efficiency,[2],91.60%
CCCCCCCCCCCCCCC(O)CN(CCOCCN(CCOCCN(CC(O)CCCCCCCCCCCCCC)CC(O)CCCCCCCCCCCCCC)CCN1CCN(C)CC1)CC(O)CCCCCCCCCCCCCC (stereo not drawn) [F-C16],PDI,[1],0.099
same,Particle Size,[1],91.9
same,Cell Viability,DC2.4 cells,96.8%
same,Positive Rate (EGFP),DC2.4 cells,60.3%
same,Fluorescence Intensity,DC2.4 cells,0.17
same,Entrapment Efficiency,[2],92.39%
